target: T1, KRAS G12C 1-169, his-tagged protein, GDP-loaded (Homo sapiens, UniProt P01116, G12C); experiment: Biochemical assay: covalent modification of KRAS G12C measured by mass spectrometry (RapidFire/TOF or Q-Exactive); type: binding; conditions: covalent binding to (modification of) KRAS G12C after a ten minute incubation period
T1 construct: KRAS G12C 1-169, his-tagged protein, GDP-loaded
How it was run: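 GDP-loaded KRAS G12C 1-169 (his-tagged) at 2 μM or 0.5 μM in 20 mM Hepes, 150 mM NaCl, 1 mM MgCl2, incubated with compound at 100, 30 or 10 μM at room temperature for 10 min, 30 min, 2 h or 24 h, then quenched with formic acid. Intact-protein LC-MS, deconvolved; percent modification from modified versus unmodified protein.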

Q: `C=CC(=O)N1C[C@H](C)N(c2nc(N3CC(N(C)C)C3)nc3c(F)c(-c4c(C)ccc5nn[nH]c45)c(Cl)cc23)C[C@H]1C` [Compound 86, 1-((2R,5S)-4-(6-chloro-2-(3-(dimethylamino)azetidin-1-yl)-8-fluoro-7-(6-methyl-1H-benzo[d][1,2,3]triazol-7-yl)quinazolin-4-yl)-2,5-dimethylpiperazin-1-yl)prop-2-en-1-one] was tested. Which Binding % did it give?
A: + (+ indicates binding activity greater than 0% and up to 50%)

Q: How did the Binding % turn out when `C=CC(=O)N1C[C@H](C)N(c2nc(NCCc3ncccn3)nc3c(F)c(-c4c(C)ccc5onc(N)c45)c(Cl)cc23)C[C@H]1C` [Compound 91, 1-((2R,5S)-4-(7-(3-amino-5-methylbenzo[d]isoxazol-4-yl)-6-chloro-8-fluoro-2-(2-(pyrimidin-2-yl)ethylamino)quinazo-lin-4-yl)-2,5-dimethylpiperazin-1-yl)prop-2-en-1-one] was run?
A: +++ (+++ indicates binding activity greater than 80%)

Q: For `C=CC(=O)N1C[C@H](C)N(c2nc(NCCN3CCOCC3)nc3c(F)c(-c4c(C)ccc5onc(N)c45)c(Cl)cc23)C[C@H]1C` [Compound 92, 1-((2R,5S)-4-(7-(3-amino-5-methylbenzo[d]isoxazol-4-yl)-6-chloro-8-fluoro-2-(2-morpholinoethylamino)quinazolin-4-yl)-2,5-dimethylpiperazin-1-yl)prop-2-en-1-one], which Binding % is on record?
A: ++ (++ indicates binding activity from 50 to 80%)

Q: Which Binding % does the source give for `C=CC(=O)N1C[C@H](C)N(c2nc(NCCC(=O)N3CCCC3)nc3c(F)c(-c4c(C)ccc5onc(N)c45)c(Cl)cc23)C[C@H]1C` [Compound 93, 1-((2R,5S)-4-(7-(3-amino-5-methylbenzo[d]isoxazol-4-yl)-6-chloro-8-fluoro-2-(3-oxo-3-(pyrrolidin-1-yl)propylamino)quinazo-lin-4-yl)-2,5-dimethylpiperazin-1-yl)prop-2-en-1-one] here?
A: ++ (++ indicates binding activity from 50 to 80%)

Q: `C=CC(=O)N1C[C@H](C)N(c2nc(N3CC(N(C)C)C3)nc3c(F)c(-c4c(C)ccc5[nH]nnc45)c(Cl)cc23)C[C@H]1C` [Compound 94, 1-((2R,5S)-4-(6-chloro-2-(3-(dimethylamino)azetidin-1-yl)-8-fluoro-7-(5-methyl-1H-benzo[d][1,2,3]triazol-4-yl)quinazolin-4-yl)-2,5-dimethylpiperazin-1-yl)prop-2-en-1-one] was tested. Which Binding % did it give?
A: ++ (++ indicates binding activity from 50 to 80%)

Q: With `C=CC(=O)N1C[C@H](C)N(c2nc(N3CC(N(C)C)C3)nc3c(F)c(-c4c(C)ccc5onc(N)c45)c(Cl)cc23)C[C@H]1C` [Compound 95, 1-((2R,5S)-4-((R)-7-(3-amino-5-methylbenzo[d]isoxazol-4-yl)-6-chloro-2-(3-(dimethylamino)azetidin-1-yl)-8-fluoroquinazolin-4-yl)-2,5-dimethylpiperazin-1-yl)prop-2-en-1-one] as the molecule, how does the Binding % read?
A: +++ (+++ indicates binding activity greater than 80%)

Q: For `C=CC(=O)N1C[C@H](C)N(c2nc(N3CC(N(C)C)C3)nc3c(F)c(-c4c(C)ccc5onc(Cl)c45)c(Cl)cc23)C[C@H]1C` [Compound 99, 1-((2R,5S)-4-(6-chloro-7-(3-chloro-5-methylbenzo[d]isoxazol-4-yl)-2-(3-(dimethylamino)azetidin-1-yl)-8-fluoroquinazolin-4-yl)-2,5-dimethylpiperazin-1-yl)prop-2-en-1-one], which Binding % is on record?
A: + (+ indicates binding activity greater than 0% and up to 50%)

Q: Which Binding % does the source give for `C=CC(=O)N1C[C@H](C)N(c2nc(OCCN3CC[C@@H](OC)C3)nc3c(F)c(-c4c(C)ccc5[nH]nc(N)c45)c(Cl)cc23)C[C@H]1C` [Compound 100, 1-((2R,5S)-4-(7-(3-amino-5-methyl-1H-indazol-4-yl)-6-chloro-8-fluoro-2-(2-((R)-3-methoxypyrrolidin-1-yl)ethoxy)quinazolin-4-yl)-2,5-dimethylpiperazin-1-yl)prop-2-en-1-one] here?
A: +++ (+++ indicates binding activity greater than 80%)

Q: How did the Binding % turn out when `C=CC(=O)N1C[C@H](C)N(c2nc(N3CC([N+](C)(C)C)C3)nc3c(F)c(-c4c(C)ccc5cnn(C)c45)c(Cl)cc23)C[C@H]1C` [Compound 106, 1-((R)-4-((2S,5R)-4-acryloyl-2,5-dimethylpiperazin-1-yl)-6-chloro-7-(1,6-dimethyl-1H-indazol-7-yl)-8-fluoroquinazolin-2-yl)-N,N,N-trimethylazetidin-3-aminium] was run?
A: +++ (+++ indicates binding activity greater than 80%)

Q: Which Binding % does the source give for `C=CC(=O)N1C[C@H](C)N(c2nc(N3CC(N(C)C)C3)nc3c(F)c(-c4c(C)ccc5[nH]nc(C)c45)c(Cl)cc23)C[C@H]1C` [Compound 107, 1-((2R,5S)-4-(6-chloro-7-(3,5-dimethyl-1H-indazol-4-yl)-2-(3-(dimethylamino)azetidin-1-yl)-8-fluoroquinazolin-4-yl)-2,5-dimethylpiperazin-1-yl)prop-2-en-1-one] here?
A: + (+ indicates binding activity greater than 0% and up to 50%)

Q: With `C=CC(=O)N1C[C@H](C)N(c2nc(OCCN3CC[C@@H](F)C3)nc3c(F)c(-c4c(C)ccc5[nH]nc(N)c45)c(Cl)cc23)C[C@H]1C` [Compound 108, 1-((2R,5S)-4-(7-(3-amino-5-methyl-1H-indazol-4-yl)-6-chloro-8-fluoro-2-(2-((R)-3-fluoropyrrolidin-1-yl)ethoxy)quinazolin-4-yl)-2,5-dimethylpiperazin-1-yl)prop-2-en-1-one] as the molecule, how does the Binding % read?
A: +++ (+++ indicates binding activity greater than 80%)

Q: With `C=CC(=O)N1C[C@H](C)N(c2nc(OCCN3CC[C@H](F)C3)nc3c(F)c(-c4c(C)ccc5[nH]nc(N)c45)c(Cl)cc23)C[C@H]1C` [Compound 109, 1-((2R,5S)-4-(7-(3-amino-5-methyl-1H-indazol-4-yl)-6-chloro-8-fluoro-2-(2-((S)-3-fluoropyrrolidin-1-yl)ethoxy)quinazolin-4-yl)-2,5-dimethylpiperazin-1-yl)prop-2-en-1-one] as the molecule, how does the Binding % read?
A: +++ (+++ indicates binding activity greater than 80%)

Q: For `C=CC(=O)N1C[C@H](C)N(c2nc(OCCN3CCCC(F)(F)C3)nc3c(F)c(-c4c(C)ccc5[nH]nc(N)c45)c(Cl)cc23)C[C@H]1C` [Compound 114, 1-((2R,5S)-4-(7-(3-amino-5-methyl-1H-indazol-4-yl)-6-chloro-2-(2-(3,3-difluoropiperidin-1-yl)ethoxy)-8-fluoroquinazolin-4-yl)-2,5-dimethylpiperazin-1-yl)prop-2-en-1-one], which Binding % is on record?
A: +++ (+++ indicates binding activity greater than 80%)

Q: How did the Binding % turn out when `C=CC(=O)N1C[C@H](C)N(c2nc(N3CC(N(C)C)C3)nc3c(F)c(-c4c(C)ccc5[nH]nc(C(F)(F)F)c45)c(Cl)cc23)C[C@H]1C` [Compound 115, 1-((2R,5S)-4-(6-chloro-2-(3-(dimethylamino)azetidin-1-yl)-8-fluoro-7-(5-methyl-3-(trifluoromethyl)-1H-indazol-4-yl)quinazolin-4-yl)-2,5-dimethylpiperazin-1-yl)prop-2-en-1-one] was run?
A: + (+ indicates binding activity greater than 0% and up to 50%)

Q: How did the Binding % turn out when `C=CC(=O)N1C[C@H](C)N(c2nc(OCCN3CCC(F)(F)CC3)nc3c(F)c(-c4c(C)ccc5[nH]nc(N)c45)c(Cl)cc23)C[C@H]1C` [Compound 118, 1-((2R,5S)-4-(7-(3-amino-5-methyl-1H-indazol-4-yl)-6-chloro-2-(2-(4,4-difluoropiperidin-1-yl)ethoxy)-8-fluoroquinazolin-4-yl)-2,5-dimethylpiperazin-1-yl)prop-2-en-1-one] was run?
A: +++ (+++ indicates binding activity greater than 80%)

Q: Which Binding % does the source give for `C=CC(=O)N1C[C@H](C)N(c2nc(N3CC(N(C)C)C3)nc3c(F)c(-c4c(C)ccc5[nH]nc(NC(C)=O)c45)c(Cl)cc23)C[C@H]1C` [Compound 119, N-(4-(4-((2S,5R)-4-acryloyl-2,5-dimethylpiperazin-1-yl)-6-chloro-2-(3-(dimethylamino)azetidin-1-yl)-8-fluoroquinazolin-7-yl)-5-methyl-1H-indazol-3-yl)acetamide] here?
A: + (+ indicates binding activity greater than 0% and up to 50%)

Q: For `C=CC(=O)N1C[C@H](C)N(c2nc(N3CC(N(C)C)C3)nc3c(F)c(-c4c(C)ccc5cnn(C)c45)c(Cl)cc23)C[C@H]1C` [Compound 120, 1-((2R,5S)-4-(6-chloro-7-(1,6-dimethyl-1H-indazol-7-yl)-2-(3-(dimethylamino)azetidin-1-yl)-8-fluoroquinazolin-4-yl)-2,5-dimethylpiperazin-1-yl)prop-2-en-1-one], which Binding % is on record?
A: ++ (++ indicates binding activity from 50 to 80%)

Q: With `C=CC(=O)N1C[C@H](C)N(c2nc(OCCN3CC(F)(F)C3)nc3c(F)c(-c4c(C)ccc5cnn(CC)c45)c(Cl)cc23)C[C@H]1C` [Compound 123, 1-((2R,5S)-4-(6-chloro-2-(2-(3,3-difluoroazetidin-1-yl)ethoxy)-7-(1-ethyl-6-methyl-1H-indazol-7-yl)-8-fluoroquinazolin-4-yl)-2,5-dimethylpiperazin-1-yl)prop-2-en-1-one] as the molecule, how does the Binding % read?
A: +++ (+++ indicates binding activity greater than 80%)

Q: Which Binding % does the source give for `C=CC(=O)N1C[C@H](C)N(c2nc(N3CC(N(C)C)C3)nc3c(F)c(-c4c(C)ccc5sncc45)c(Cl)cc23)C[C@H]1C` [Compound 124, 1-((2R,5S)-4-(6-chloro-2-(3-(dimethylamino)azetidin-1-yl)-8-fluoro-7-(5-methylbenzo[d]isothia-zol-4-yl)quinazolin-4-yl)-2,5-dimethylpiperazin-1-yl)prop-2-en-1-one] here?
A: ++ (++ indicates binding activity from 50 to 80%)

Q: `C=CC(=O)N1C[C@H](C)N(c2nc(N3CC(N(C)C)C3)nc3c(F)c(-c4c(C)ccc5ocnc45)c(Cl)cc23)C[C@H]1C` [Compound 125, 1-((2R,5S)-4-(6-chloro-2-(3-(dimethylamino)azetidin-1-yl)-8-fluoro-7-(5-methylbenzo[d]oxazol-4-yl)quinazolin-4-yl)-2,5-dimethylpiperazin-1-yl)prop-2-en-1-one] was tested. Which Binding % did it give?
A: ++ (++ indicates binding activity from 50 to 80%)

Source: US11377441B2, “Covalent inhibitors of KRAS” (Araxes Pharma LLC, priority 2017, dated 2022)
